The results in this text go back to article PMC8294803, “A Roadmap to the Structure-Related Metabolism Pathways of Per- and Polyfluoroalkyl Substances in the Early Life Stages of Zebrafish (Danio rerio)” (Environmental Health Perspectives, 2021).

The structures appear in SMILES notation. Read-outs that look alike come from different tables or passages of the source.

The data set relates to zebrafish embryos.
[1] abbreviates: 5μM through 120 hpf, malformation rate.

For `FC(F)(F)COC(OCC(F)(F)F)OCC(F)(F)F` [compound 1, tris(Trifluoroethoxy)methane], under setting [1], the “pericardial oedemata, Mean” value was 2.22%; the “spinal curvature, Mean” value was found to be 2.22%; the “tail dysplasia, Mean” value was found to be 2.22%. Besides, the “Mortality (%)” value (5 µM, exposure through 120 hpf) amounted to 0%.
Consider `FCOC(C(F)(F)F)C(F)(F)F` [compound 3, Sevoflurane, reference compound], for which, under setting [1], the “pericardial oedemata, Mean” value is on record as 0.00%; the “spinal curvature, Mean” value was found to be 2.22%; the “tail dysplasia, Mean” value is reported as 0.00%. Moreover, the “Mortality (%)” value (5 µM, exposure through 120 hpf) is reported as 1.1%.
`O=S(=O)(F)C(F)(F)C(F)(F)C(F)(F)C(F)(F)F` [compound 8, Perfluorobutanesulfonyl fluoride]: under setting [1], the “pericardial oedemata, Mean” value is listed as 0.00%; the “spinal curvature, Mean” value was found to be 1.11%; the “tail dysplasia, Mean” value is 3.33%. In addition, the “Mortality (%)” value (5 µM, exposure through 120 hpf) is 2.2%.
For `CCN(CCO)S(=O)(=O)C(F)(F)C(F)(F)C(F)(F)C(F)(F)C(F)(F)C(F)(F)C(F)(F)C(F)(F)F` [compound 9, N-Ethyl-N-(2-hydroxyethyl)perfluorooctanesulfonamide], in that order: 1.11%, 0.00%, 0.00% and 1.1%.
For `OCC(F)(F)C(F)(F)C(F)(F)F` [compound 11, Heptafluorobutanol], under setting [1], the “pericardial oedemata, Mean” value is given as 4.44%; the “spinal curvature, Mean” value is 2.22%; the “tail dysplasia, Mean” value is recorded as 0.00%. For the same molecule, the “Mortality (%)” value (5 µM, exposure through 120 hpf) is 1.1%.
With `C=CCOC(F)(C(F)(F)F)C(F)(F)F` [compound 18, Allyl perfluoroisopropyl ether], under setting [1], the “pericardial oedemata, Mean” value is on record as 0.00%; the “spinal curvature, Mean” value is 0.00%; the “tail dysplasia, Mean” value is recorded as 0.00%. Moreover, where the note is “5 µM, exposure through 120 hpf”, the “Mortality (%)” value is 3.3%.
Consider `CC=CC(F)(F)C(F)(F)C(F)(F)F` [compound 22, 1-Propenylperfluoropropane], for which, under setting [1], the “pericardial oedemata, Mean” value is 0.00%; the “spinal curvature, Mean” value is reported as 0.00%; the “tail dysplasia, Mean” value is given as 0.00%. The “Mortality (%)” value (5 µM, exposure through 120 hpf) turned out to be 3.3%.
On to `C=CC(F)(C(F)(F)F)C(F)(F)C(F)(F)F` (stereo not shown) [compound 25, 2-Vinylperfluorobutane], for which, under setting [1], the “pericardial oedemata, Mean” value turned out to be 0.00%; the “spinal curvature, Mean” value was 0.00%; the “tail dysplasia, Mean” value is given as 0.00%. Besides, the “Mortality (%)” value (5 µM, exposure through 120 hpf) turned out to be 1.1%.
As for `FC(F)(F)COCC(F)(F)F` [compound 27, Flurothyl, reference compound], under setting [1], the “pericardial oedemata, Mean” value is 2.22%; the “spinal curvature, Mean” value is recorded as 0.00%; the “tail dysplasia, Mean” value stood at 0.00%. Besides, under “5 µM, exposure through 120 hpf”, the “Mortality (%)” value is reported as 1.1%.
In the case of `CC(F)(F)CC(F)(F)F` [compound 29, 1,1,1,3,3-Pentafluorobutane], under setting [1], the “pericardial oedemata, Mean” value was found to be 0.00%; the “spinal curvature, Mean” value is 0.00%; the “tail dysplasia, Mean” value is given as 0.00%. Under “5 µM, exposure through 120 hpf”, the “Mortality (%)” value came out at 3.3%.
Take `NC(O)(C(F)(F)F)C(F)(F)F` [compound 33, 2-Aminohexafluoropropan-2-ol]: under setting [1], the “pericardial oedemata, Mean” value came out at 0.00%; the “spinal curvature, Mean” value was found to be 0.00%; the “tail dysplasia, Mean” value was 0.00%. For the same molecule, the “Mortality (%)” value (5 µM, exposure through 120 hpf) worked out at 7.8%.
With `O=C(O)C(F)(OC(F)(F)C(F)(F)C(F)(F)F)C(F)(F)F` (stereo not shown) [compound 37, Perfluoro-2-methyl-3-oxahexanoic acid], under setting [1], the “pericardial oedemata, Mean” value came to 2.22%; the “spinal curvature, Mean” value is 0.00%; the “tail dysplasia, Mean” value is given as 1.11%. Further, where the note is “5 µM, exposure through 120 hpf”, the “Mortality (%)” value was determined as 1.1%.
As to `OCCC(F)(F)C(F)(F)C(F)(F)C(F)(F)F` [compound 41, 4:2 Fluorotelomer alcohol], under setting [1], the “pericardial oedemata, Mean” value came to 3.33%; the “spinal curvature, Mean” value worked out at 0.00%; the “tail dysplasia, Mean” value is recorded as 0.00%. Moreover, the “Mortality (%)” value (5 µM, exposure through 120 hpf) came out at 0%.
Regarding `O=CC(F)(F)C(F)(F)C(F)(F)F` [compound 42, Perfluorobutyraldehyde], under setting [1], the “pericardial oedemata, Mean” value amounted to 2.22%; the “spinal curvature, Mean” value came to 2.22%; the “tail dysplasia, Mean” value was determined as 0.00%. Also, the “Mortality (%)” value (5 µM, exposure through 120 hpf) is 0%.
Turning to `O=C(OC(=O)C(F)(F)C(F)(F)F)C(F)(F)C(F)(F)F` [compound 43, Pentafluoropropanoic anhydride], under setting [1], the “pericardial oedemata, Mean” value was 4.44%; the “spinal curvature, Mean” value is on record as 0.00%; the “tail dysplasia, Mean” value came to 4.44%. The “Mortality (%)” value (5 µM, exposure through 120 hpf) amounted to 5.6%.
As for `COC(F)(F)C(F)(C(F)(F)F)C(F)(F)F` [compound 44, Perfluoroisobutyl methyl ether], under “in vivo”, the “Mortality (%)” value is 1.1; the “pericardial oedemata, Mean” value amounted to 1.11%; the “spinal curvature, Mean” value came to 1.11%; the “tail dysplasia, Mean” value was determined as 0.00%.
As to `FC(F)(F)C(F)(F)CNCC(F)(F)C(F)(F)F` [compound 45, Bis(1H,1H-perfluoropropyl)amine], under setting [1], the “pericardial oedemata, Mean” value was 1.11%; the “spinal curvature, Mean” value was found to be 0.00%; the “tail dysplasia, Mean” value is reported as 1.11%. Also, the “Mortality (%)” value (5 µM, exposure through 120 hpf) was 2.2%.
Consider `O=C(F)C(F)(F)C(F)(F)C(F)(F)C(F)F` [compound 51, 5H-Octafluoropentanoyl fluoride], for which, under “in vivo”, the “Mortality (%)” value was 0; the “pericardial oedemata, Mean” value was found to be 1.11%; the “spinal curvature, Mean” value is recorded as 0.00%; the “tail dysplasia, Mean” value is on record as 3.33%.
Consider `FC(F)OCC(F)(F)C(F)(F)F` [compound 52, Difluoromethyl 1H,1H-perfluoropropyl], for which, under setting [1], the “pericardial oedemata, Mean” value is 1.11%; the “spinal curvature, Mean” value is 0.00%; the “tail dysplasia, Mean” value was 0.00%. Also, the “Mortality (%)” value (5 µM, exposure through 120 hpf) was 2.2%.
As for `FC(F)=C(F)OC(F)(F)C(F)(F)C(F)(F)F` [compound 53, Heptafluoropropyl trifluorovinyl ether], under setting [1], the “pericardial oedemata, Mean” value is reported as 0.00%; the “spinal curvature, Mean” value was determined as 1.11%; the “tail dysplasia, Mean” value was found to be 0.00%. Besides, the “Mortality (%)” value (5 µM, exposure through 120 hpf) is given as 2.2%.
As for `CC(=O)C(F)(F)C(F)(F)F` [compound 55, Methyl perfluoroethyl ketone], under setting [1], the “pericardial oedemata, Mean” value is 1.11%; the “spinal curvature, Mean” value is 2.22%; the “tail dysplasia, Mean” value stood at 0.00%. Where the note is “5 µM, exposure through 120 hpf”, the “Mortality (%)” value is listed as 2.2%.
For `C=CC(F)(F)C(F)(F)C(F)(F)C(F)(F)F` [compound 59, 1H,1H,2H-Perfluoro-1-hexene], in that order: 0.00%, 1.11%, 0.00% and 4.4%.
For `CC(O)C(F)(F)C(F)(F)F` (stereo not shown) [compound 62, 1-Pentafluoroethylethanol], under setting [1], the “pericardial oedemata, Mean” value came out at 1.11%; the “spinal curvature, Mean” value came out at 0.00%; the “tail dysplasia, Mean” value stood at 1.11%. The “Mortality (%)” value (5 µM, exposure through 120 hpf) is on record as 6.7%.
With `O=C(F)C(F)(F)C(F)(F)C(F)(F)C(=O)F` [compound 63, Perfluoroglutaryl difluoride], under setting [1], the “pericardial oedemata, Mean” value turned out to be 0.00%; the “spinal curvature, Mean” value came to 0.00%; the “tail dysplasia, Mean” value is 0.00%. For the setting “5 µM, exposure through 120 hpf”, the “Mortality (%)” value came out at 5.6%.
For `OCCC(F)(F)C(F)(F)C(F)(F)C(F)(F)C(F)(F)C(F)(F)C(F)(F)C(F)(F)F` [compound 64, 8:2 Fluorotelomer alcohol], under setting [1], the “pericardial oedemata, Mean” value came out at 0.00%; the “spinal curvature, Mean” value is listed as 2.22%; the “tail dysplasia, Mean” value is recorded as 0.00%. Besides, the “Mortality (%)” value (5 µM, exposure through 120 hpf) worked out at 3.3%.
In the case of `CCOC(F)(F)C(F)(F)C(F)(F)C(F)(F)F` [compound 65, Ethyl perfluorobutyl ether], under setting [1], the “pericardial oedemata, Mean” value was found to be 0.00%; the “spinal curvature, Mean” value stood at 0.00%; the “tail dysplasia, Mean” value is given as 0.00%. For the same molecule, the “Mortality (%)” value (5 µM, exposure through 120 hpf) came to 0%.
`OC(O)(C(F)C(O)(O)C(F)(F)F)C(F)(F)F` [compound 66, 3H-Perfluoro-2,2,4,4-tetrahydroxypentane]: under setting [1], the “pericardial oedemata, Mean” value was determined as 0.00%; the “spinal curvature, Mean” value is reported as 0.00%; the “tail dysplasia, Mean” value is 0.00%. Also, the “Mortality (%)” value (5 µM, exposure through 120 hpf) is given as 1.1%.
Consider `NCC(F)(F)C(F)(F)C(F)(F)C(F)(F)F` [compound 68, 1H,1H-Perfluoropentylamine], for which, under setting [1], the “pericardial oedemata, Mean” value amounted to 0.00%; the “spinal curvature, Mean” value is on record as 0.00%; the “tail dysplasia, Mean” value is recorded as 0.00%. Further, the “Mortality (%)” value (5 µM, exposure through 120 hpf) is listed as 1.1%.
Regarding `FC(F)=C(F)C(F)(F)C(F)(F)C(F)(F)C(F)F` [compound 69, 6H-Perfluorohex-1-ene], under setting [1], the “pericardial oedemata, Mean” value came out at 0.00%; the “spinal curvature, Mean” value stood at 0.00%; the “tail dysplasia, Mean” value is recorded as 0.00%. The “Mortality (%)” value (5 µM, exposure through 120 hpf) is listed as 0%.
As for `NC(C(F)(F)F)C(F)(F)F` [compound 71, 2-Amino-2H-perfluoropropane], under setting [1], the “pericardial oedemata, Mean” value is 0.00%; the “spinal curvature, Mean” value is 0.00%; the “tail dysplasia, Mean” value came out at 0.00%. The “Mortality (%)” value (5 µM, exposure through 120 hpf) is on record as 3.3%.
In the case of `O=CC(F)(F)C(F)(F)C(F)(F)C(F)F` [compound 72, 5H-Perfluoropentanal], under setting [1], the “pericardial oedemata, Mean” value was 0.00%; the “spinal curvature, Mean” value was 0.00%; the “tail dysplasia, Mean” value is recorded as 0.00%. Besides, the “Mortality (%)” value (5 µM, exposure through 120 hpf) is 3.3%.
